Experimental data as given in US6472404B1 (priority 2000, dated 2002).

Legend:
HIV-HXB2 = assay: Antiviral assay: protection of HIV-infected MT4 cells from cell death (MTT); assay type: cell-based; settings: Human immunodeficiency virus 1, 120 h; MT4 cells infected with HIV-HXB2; 5 days; MTT viability; rounded to nearest whole number
Description: Methods 20: 309-321]. The method is based on the ability of compounds to protect HIV-infected T lymphoblastoid cells (MT4 cells) from cell-death mediated by the infection. The endpoint of the assay was calculated as the concentration of compound at which the cell viability of the culture was preserved by 50% (‘50% inhibitory concentration’, IC50). The cell viability of a culture was determined by the uptake of soluble, yellow 3-[4,5-dimethylthiazol-2-yl]-2,5-diphenyltetrazolium bromide (MTT) and its reduction to a purple insoluble formazan salt. After solubilization, spectrophotometric methods were employed to measure the amount of formazan product.
MT4 cells were prepared to be in logarithmic-phase growth and a total of 2×10^6 cells infected with either the wild type or site directed mutant clones of HIV-HXB2 at a multiplicity of approximately 0.0001 infectious units of virus per cell in a total volume of between 200-500 μl. The cells were incubated with virus for one hour at 37° C. then washed in 0.01 M phosphate buffered saline, pH 7.2, and resuspensed in culture medium for incubation in culture with serial dilutions of test compound. The culture medium used was RPMI 1640 without phenol red, supplemented with penicillin, streptomycin, L-glutamine and 10% fetal calf serum (GM10).
Test compounds were prepared as 2 mM solutions in dimethyl sulphoxide (DMSO). Four replicate, serial 2-fold dilutions in GM10 were then prepared and 50 microliter amounts placed in 96-well plates over a final concentration range of […]. Fifty microliters GM10 and 3.75×10^4 infected cells were then added to each well. Control cultures containing no cells (blank), uninfected cells (100% viability; 4 replicates) and infected cells without compound (total virus-mediated cell death; 4 replicates) were also prepared. The cultures were then incubated at 37° C. in a humidified atmosphere of 5% CO2 in air for 5 days.
A fresh solution of 5 mg/mL MTT was prepared in 0.01 M phosphate buffered saline, pH 7.2 and 20 μL added to each culture. The cultures were further incubated as before for 2 hours. They were then mixed by pipetting up and down, and 170 microliters of Triton X-100 in acidified isopropanol (10% v/v Triton X-100 in 1:250 mixture of concentrated HCl in isopropanol) were added and the cultures were mixed again by pipetting up and down. When the formazan deposit was fully solubilized by further mixing, the absorbance (OD) of the cultures was measured at 540 nm and 690 nm wavelength (690 nm readings were used as blanks for artefacts between wells). The percent protection for each treated culture was then calculated from the equation:
OD drug-treated cultures)−(OD untreated virus control cultures) % Protection=100%
(OD uninfected cultures)−(OD untreated virus control cultures)
The IC50 was then obtained from graph plots of percentage protection versus log10 drug concentration.

HIV-1 protease = HIV-1 protease (Human immunodeficiency virus type 1 group M subtype B, UniProt P04585); assay: HIV protease inhibition assay (quenched fluorogenic substrate, fluorescence energy transfer)
Description: HIV protease inhibitory activity was assessed using an adaptation of the method of Matayoshi. et al. [Matayoshi E. D. et al (1990).
Crude HIV-1 protease was prepared from E. coli pPTΔN. Cultures were grown at 30° in M9 medium supplemented with 0.2% casamino acids, 100 μg/ml ampicillin and 25 μg/ml thiamine until OD600=0.5-0.6, and the temperature was raised to 42° to induce expression of the protease. After 1.5 hours, the cells were harvested and the pellets stored at −70° until required.
The protease was prepared by lysis of the cells in a French pressure cell followed by precipitation of the enzyme with ammonium sulfate at 30% saturation.
The assay buffer comprised 0.1M sodium acetate pH 4.7, 8 mM EDTA, 0.2 M NaCl.
Tubes were incubated for 2 hours at 37° and the reaction was terminated by the addition of 500 μl of a 2:1 mixture of DMSO:50 mM Tricine pH 8.5. Fluorescence was measured in a fluorescence spectrophotometer, excitation λ=340 nm, emission λ=492 nm.

SMILES	IC50 (HIV-HXB2) [nM]	IC50 (HIV-1 protease) [nM]	melting point [°C]
CC(C)(C)NC(=O)[C@@H]1C[C@@H]2CCCC[C@@H]2CN1C[C@@H](O)[C@H](Cc1ccccc1)NC(=O)CC(C)(C)S(C)(=O)=O [Example 95, N-tert-Butyl-1,2,3,4,4a(S),5,6,7,8,8a(S)-decahydro-1-[2(R)-hydroxy-3(S)-[3-(methanesulfonyl)butyramido]-4-phenylbutyl]-2(S)-piperazinecarboxamide]	250	61	95 to 110
CC(C)(C)NC(=O)[C@@H]1C[C@@H]2CCCC[C@@H]2CN1C[C@@H](O)[C@H](Cc1ccccc1)NC(=O)[C@@H](NS(C)(=O)=O)C(C)(C)S(C)(=O)=O	–	–	135 to 160
CC(C)(C)NC(=O)[C@@H]1C[C@@H]2CCCC[C@@H]2CN1C[C@@H](O)[C@H](Cc1ccccc1)NC(=O)[C@@H](NC(=O)COc1cccc(F)c1)C(C)(C)S(C)(=O)=O	–	–	197 to 199
CC(C)(C)NC(=O)[C@@H]1C[C@@H]2CCCC[C@@H]2CN1C[C@@H](O)[C@H](Cc1ccccc1)NC(=O)[C@@H](NC(=O)c1cccc(F)c1)C(C)(C)S(C)(=O)=O [Example 40, N-tert-Butyl-2-[3-(S)-[[N-(3-fluorobenzoyl)-3-(methanesulfonyl)-L-valyl]amino]-2(R)-hydroxy-4-phenylbutyl]-1,2,3,4,4a(S),5,6,7,8,8a(S)-decahydro-3(S)-isoquinolinecarboxamide]	19	1.4	–
CC(C)(C)NC(=O)[C@@H]1C[C@@H]2CCCC[C@@H]2CN1C[C@@H](O)[C@H](Cc1ccccc1)NC(=O)[C@@H](NC(=O)c1ccoc1)C(C)(C)S(C)(=O)=O [Example 28, N-tert-Butyl-2-[3-(S)-[[N-(3-furoyl)-3-(methanesulfonyl)-L-valyl]amino]-2(R)-hydroxy-4-phenylbutyl]-1,2,3,4,4a(S),5,6,7,8,8a(S)-decahydro-3(S)-isoquinolinecarboxamide]	21	1	–
Cc1csc(N[C@H](C(=O)N[C@@H](Cc2ccccc2)[C@H](O)CN2C[C@H]3CCCC[C@H]3C[C@H]2C(=O)NC(C)(C)C)C(C)(C)S(C)(=O)=O)n1 [Example 138, N-tert-Butyl-1,2,3,4,4a(S),5,6,7,8,8a(S)-decahydro-2-[2(R)-hydroxy-3(S)-[[3-(methanesulfonyl)-N-(4-methyl-2-thiazolyl)-L-valyl]amino]-4-phenylbutyl]-3(S)-isoquinolinecarboxamide]	65	7.8	–
CC(C)(C)NC(=O)[C@@H]1C[C@@H]2CCCC[C@@H]2CN1C[C@@H](O)[C@H](Cc1ccccc1)NC(=O)[C@@H](NC(=O)c1cccnc1)C(C)(C)S(C)(=O)=O [Example 7, N-tert-butyl-1,2,3,4,4a(S),5,6,7,8,8a(S)-decahydro-2-[2(R)-hydroxy-3(S)-[[3-(methanesulfonyl)-N-[(3-pyridyl)carbonyl]-L-valyl]amino]-4-phenylbutyl]-3(S)-isoquinolinecarboxamide]	21	2.3	–
CC(C)(C)NC(=O)[C@@H]1C[C@@H]2CCCC[C@@H]2CN1C[C@@H](O)[C@H](Cc1ccccc1)NC(=O)[C@@H](NC(=O)c1ccc(Cl)nc1)C(C)(C)S(C)(=O)=O [Example 16, N-tert-Butyl-2-[3-(S)-[[N-[(6-chloro-3-pyridyl)carbonyl]-3-(methanesulfonyl)-L-valyl]amino]-2(R)-hydroxy-4-phenylbutyl]-1,2,3,4,4a(S),5,6,7,8,8a(S)-decahydro-3(S)-isoquinolinecarboxamide]	12	1	–
CC(C)(C)NC(=O)[C@@H]1C[C@@H]2CCCC[C@@H]2CN1C[C@@H](O)[C@H](Cc1ccccc1)NC(=O)[C@@H](n1cc[nH]c1=O)C(C)(C)S(C)(=O)=O	–	–	228 to 230
CC(C)(C)NC(=O)[C@@H]1C[C@@H]2CCCC[C@@H]2CN1C[C@@H](O)[C@H](Cc1ccccc1)NC(=O)[C@@H](NC(=O)COc1cccnn1)C(C)(C)S(C)(=O)=O [Example 154]	16	0.5	–
CC(C)(C)NC(=O)[C@@H]1C[C@@H]2CCCC[C@@H]2CN1C[C@@H](O)[C@H](Cc1ccccc1)NC(=O)[C@@H](NC(=O)NCc1ccccc1)C(C)(C)S(C)(=O)=O [Example 168, 2-[3(S)-[[N-(Benzylcarbamoyl)-3-(methanesulfonyl)-L-valyl]amino]-2(R)-hydroxy-4-phenylbutyl]-N-tert-butyl-1,2,3,4,4a(S),5,6,7,8,8a(S)-decahydro-3(S)-isoquinolinecarboxamide]	16	0.5	–
CC(C)NCC(=O)N[C@H](C(=O)N[C@@H](Cc1ccccc1)[C@H](O)CN1C[C@H]2CCCC[C@H]2C[C@H]1C(=O)NC(C)(C)C)C(C)(C)S(C)(=O)=O [Example 92, N-tert-Butyl-1,2,3,4,4a(S),5,6,7,8,8a(S)-decahydro-2-[2(R)-hydroxy-3(S)-[[N-[2-(isopropylamino)acetyl]-3-(methanesulfonyl)-L-valyl]amino]-4-phenylbutyl]-3(S)-isoquinolinecarboxamide]	33	4	–
CC(C)(C)NC(=O)[C@@H]1C[C@@H]2CCCC[C@@H]2CN1C[C@@H](O)[C@H](Cc1ccccc1)NC(=O)[C@@H](Nc1nc(CO)cs1)C(C)(C)S(C)(=O)=O	–	–	126
CN(Cc1cccnc1)C(=O)N[C@H](C(=O)N[C@@H](Cc1ccccc1)[C@H](O)CN1C[C@H]2CCCC[C@H]2C[C@H]1C(=O)NC(C)(C)C)C(C)(C)S(C)(=O)=O [Example 170, N-tert-Butyl-1,2,3,4,4a(S),5,6,7,8,8a(S)-decahydro-2-[2(R)-hydroxy-3(S)-[[3-(methanesulfonyl)-N-[N-methyl-N-[(3-pyridyl)methyl]carbamoyl]-L-valyl]amino]-4-phenylbutyl]-3(S)-isoquinolinecarboxamide]	13	1	–
CC(C)(C)NC(=O)[C@@H]1C[C@@H]2CCCC[C@@H]2CN1C[C@@H](O)[C@H](Cc1ccccc1)NC(=O)[C@@H](NCc1ccccc1)C(C)(C)S(C)(=O)=O [Example 112, 2-[3(S)-[[N-Benzyl-3-(methanesulfonyl)-L-valyl]amino]-2(R)-hydroxy-4-phenylbutyl]-N-tert-butyl-1,2,3,4,4a(S),5,6,7,8,8a(S)-decahydro-3(S)-isoquinolinecarboxamide]	94	7.5	–
CC(C)(C)NC(=O)[C@@H]1C[C@@H]2CCCC[C@@H]2CN1C[C@@H](O)[C@H](Cc1ccccc1)NC(=O)[C@@H](NC(=O)CNc1ccccc1)C(C)(C)S(C)(=O)=O [Example 93, N-tert-Butyl-1,2,3,4,4a(S),5,6,7,8,8a(S)-decahydro-2-[2(R)-hydroxy-3(S)-[3-(methanesulfonyl)-N-(N-phenylglycyl)-L-valyl]amino]-4-phenylbutyl-3(S)-isoquinolinecarboxamide]	8	0.5	–
CC(C)(C)NC(=O)[C@@H]1C[C@@H]2CCCC[C@@H]2CN1C[C@@H](O)[C@H](Cc1ccccc1)NC(=O)[C@@H](NC(=O)N1CCOCC1)C(C)(C)S(C)(=O)=O [Example 106, N-tert-Butyl-1,2,3,4,4a(S),5,6,7,8,8a(S)-decahydro-2-[2(R)-hydroxy-3(S)-[[3-(methanesulfonyl)-N-(morpholinocarbonyl)-L-valyl]amino]-4 phenylbutyl]-3(S)-isoquinolinecarboxamide]	60	10.7	–
CC(C)(C)NC(=O)[C@@H]1C[C@@H]2CCCC[C@@H]2CN1C[C@@H](O)[C@H](Cc1ccccc1)NC(=O)[C@@H](NC(=O)COc1ccccn1)C(C)(C)S(C)(=O)=O [Example 152]	17	1.2	–
CC(C)(C)NC(=O)[C@@H]1C[C@@H]2CCCC[C@@H]2CN1C[C@@H](O)[C@H](Cc1ccccc1)NC(=O)[C@@H](NC(=O)COc1cccnc1)C(C)(C)S(C)(=O)=O [Example 3, N-tert-butyl-1,2,3,4,4a(S),5,6,7,8a(S)-decahydro-2-[2(R)-hydroxy-3(S)-[[3-(methanesulfonyl)-N-[2-(3-pyridyloxy)acetyl]-L-valyl]amino]-4-phenylbutyl]-3(S)-isoquinolinecarboxamide]	17	0.6	–
